Values of other authors, collected in patent publication US20240050514A1, “USE OF COMPOUND, PHARMACEUTICAL COMPOSITION FOR THE TREATMENT OF IMMUNE OR METABOLIC DISORDERS, PHARMACEUTICAL COMPOSITION FOR THE TREATMENT OF ILLNESSES CAUSED BY OR ASSOCIATED WITH VIRUSES” (PROTEIMAX BIOTECNOLOGIA LTDA., priority 2021, published 2024).

Assays:
[1] = tested on: rats
[2] = in vivo
[3] = biological target: ACE (Homo sapiens, UniProt P12821); details: read-out: inhibition constant Ki
Sequence of ACE (P12821 30-1306, species assumed): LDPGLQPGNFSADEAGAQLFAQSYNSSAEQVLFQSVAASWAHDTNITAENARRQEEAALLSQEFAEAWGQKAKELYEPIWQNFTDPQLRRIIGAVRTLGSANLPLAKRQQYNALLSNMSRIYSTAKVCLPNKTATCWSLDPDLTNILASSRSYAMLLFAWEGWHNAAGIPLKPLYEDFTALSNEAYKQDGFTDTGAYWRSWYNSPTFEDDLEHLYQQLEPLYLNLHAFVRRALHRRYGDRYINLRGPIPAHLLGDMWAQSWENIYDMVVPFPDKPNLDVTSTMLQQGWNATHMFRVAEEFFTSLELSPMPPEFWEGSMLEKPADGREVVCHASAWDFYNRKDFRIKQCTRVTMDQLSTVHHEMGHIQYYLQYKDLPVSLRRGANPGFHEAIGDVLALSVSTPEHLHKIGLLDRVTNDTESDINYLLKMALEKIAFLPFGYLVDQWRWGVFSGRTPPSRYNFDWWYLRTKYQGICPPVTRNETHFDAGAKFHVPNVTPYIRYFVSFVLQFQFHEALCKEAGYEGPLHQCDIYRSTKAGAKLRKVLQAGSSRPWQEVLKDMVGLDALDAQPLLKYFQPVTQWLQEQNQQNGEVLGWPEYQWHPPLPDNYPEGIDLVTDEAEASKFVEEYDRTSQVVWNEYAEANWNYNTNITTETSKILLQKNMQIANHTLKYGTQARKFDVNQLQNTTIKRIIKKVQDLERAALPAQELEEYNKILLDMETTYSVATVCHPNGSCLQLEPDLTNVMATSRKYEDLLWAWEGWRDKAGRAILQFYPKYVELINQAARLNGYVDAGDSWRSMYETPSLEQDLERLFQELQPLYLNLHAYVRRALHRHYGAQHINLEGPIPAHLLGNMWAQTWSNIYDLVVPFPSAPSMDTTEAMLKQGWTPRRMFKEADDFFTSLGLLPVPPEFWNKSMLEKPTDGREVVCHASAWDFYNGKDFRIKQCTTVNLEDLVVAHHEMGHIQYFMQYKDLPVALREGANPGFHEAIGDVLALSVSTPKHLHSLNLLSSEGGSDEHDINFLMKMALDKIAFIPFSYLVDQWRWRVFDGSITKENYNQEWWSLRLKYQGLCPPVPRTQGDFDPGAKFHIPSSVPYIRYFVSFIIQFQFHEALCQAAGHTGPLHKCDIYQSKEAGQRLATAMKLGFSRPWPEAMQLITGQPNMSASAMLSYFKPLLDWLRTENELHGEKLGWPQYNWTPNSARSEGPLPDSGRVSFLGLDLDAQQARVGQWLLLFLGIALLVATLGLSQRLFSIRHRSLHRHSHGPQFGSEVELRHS

In the case of `CC(C)C[C@H](NC(=O)[C@H](Cc1ccccc1)NC(=O)[C@H](CCCCN)NC(=O)[C@H](Cc1ccccc1)NC(=O)[C@H](CC(N)=O)NC(=O)[C@@H](NC(=O)[C@@H]1CCCN1)C(C)C)C(=O)N[C@@H](CO)C(=O)N[C@@H](Cc1cnc[nH]1)C(=O)O` [hemopressin, PVNFKFLSH], the “basal levels of monoamine in the prefrontal cortex” value [1] is given as “reduction in the basal levels of monoamine in the prefrontal cortex”, the behavior after administration [1] is given as “induced anxiogenic and depressive behavior” and the “crossing of the blood-brain barrier” value [2] is given as “does not cross the blood-brain barrier”. The Ki [3] was 1870 µM.
